Reference: article PMC10092094 (Chemmedchem, 2022)
Entries after “also recorded” stand apart in the source; their conditions may differ.

How the values were obtained:
[1] = target: T1, OGG1 (Homo sapiens, UniProt O15527); assay: biochemical
[2] = target: T1, OGG1; assay: Differential scanning fluorimetry; format: binding
[3] = IC50 (CI95), biochemical inhibition, confidence interval 95 in parentheses
[4] = confidence interval 95 in parentheses
[5] = IC50, biochemical inhibition, single replicate

T1 sequence (O15527 whole entry): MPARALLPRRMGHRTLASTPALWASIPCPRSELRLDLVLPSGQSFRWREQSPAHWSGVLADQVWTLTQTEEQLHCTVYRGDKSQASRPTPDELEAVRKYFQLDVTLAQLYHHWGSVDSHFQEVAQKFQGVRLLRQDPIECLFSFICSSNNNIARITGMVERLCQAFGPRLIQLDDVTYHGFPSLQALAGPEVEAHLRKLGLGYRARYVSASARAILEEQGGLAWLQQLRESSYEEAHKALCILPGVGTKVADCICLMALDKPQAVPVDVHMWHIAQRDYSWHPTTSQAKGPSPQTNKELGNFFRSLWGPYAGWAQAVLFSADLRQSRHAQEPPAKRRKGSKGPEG

Row | SMILES | IC50 [1, 3] [nM] | DSF stabilization (ΔT) [2] [K] | also measured
1 | Cc1ccc(NC(=O)N2CCC(n3c(=O)[nH]c4ccccc43)CC2)cc1 [Compound 4, N‐(4‐methylphenyl)‐4‐(2‐oxo‐2,3‐dihydro‐1H‐1,3‐benzodiazol‐1‐yl)piperidine‐1‐carboxamide] | 19900 | 3.1 | 
2 | O=C(Nc1ccc(Cl)cc1)N1CCC(n2c(=O)[nH]c3ccccc32)CC1 [Compound 6, N‐(4‐chlorophenyl)‐4‐(2‐oxo‐2,3‐dihydro‐1H‐1,3‐benzodiazol‐1‐yl)piperidine‐1‐carboxamide] | 5500 | 4.6 | IC50 ([1]; IC50 of HTS hit, concentration-response of screening hits): 10000 nM
3 | O=C(Nc1ccc(Br)cc1)N1CCC(n2c(=O)[nH]c3ccccc32)CC1 [Compound 7, N‐(4‐bromophenyl)‐4‐(2‐oxo‐2,3‐dihydro‐1H‐1,3‐benzodiazol‐1‐yl)piperidine‐1‐carboxamide] | 7000 | 2.1 | 
4 | O=C(Nc1ccc(I)cc1)N1CCC(n2c(=O)[nH]c3ccccc32)CC1 [Compound 8, N‐(4‐iodophenyl)‐4‐(2‐oxo‐2,3‐dihydro‐1H‐1,3‐benzodiazol‐1‐yl)piperidine‐1‐carboxamide] | 2900 | 2.4 | 
5 | O=C(Nc1ccc(Cl)c(Cl)c1)N1CCC(n2c(=O)[nH]c3ccccc32)CC1 [Compound 9, N‐(3,4‐dichlorophenyl)‐4‐(2‐oxo‐2,3‐dihydro‐1H‐1,3‐benzodiazol‐1‐yl)piperidine‐1‐carboxamide] | 2900 | 4.7 | 
6 | O=C(Nc1ccccc1)N1CCC(n2c(=O)[nH]c3cc(Cl)ccc32)CC1 [Compound 11, 4‐(5‐chloro‐2‐oxo‐2,3‐dihydro‐1H‐1,3‐benzodiazol‐1‐yl)‐N‐phenylpiperidine‐1‐carboxamide] |  | 3.3 | 
7 | O=C(Nc1cccc(F)c1)N1CCC(n2c(=O)[nH]c3cc(Cl)ccc32)CC1 [Compound 12, 4‐(5‐chloro‐2‐oxo‐2,3‐dihydro‐1H‐1,3‐benzodiazol‐1‐yl)‐N‐(3‐fluorophenyl)piperidine‐1‐carboxamide] | 35100 | 2.4 | 
8 | O=C(Nc1ccc(F)cc1)N1CCC(n2c(=O)[nH]c3cc(Cl)ccc32)CC1 [Compound 15, 4‐(5‐chloro‐2‐oxo‐2,3‐dihydro‐1H‐1,3‐benzodiazol‐1‐yl)‐N‐(4‐fluorophenyl)piperidine‐1‐carboxamide] |  |  | IC50 (CI95), biochemical inhibition [1, 4]: no effect
9 | O=C(Nc1ccc(Cl)cc1)N1CCC(n2c(=O)[nH]c3cc(Cl)ccc32)CC1 [Compound 16, 4‐(5‐chloro‐2‐oxo‐2,3‐dihydro‐1H‐1,3‐benzodiazol‐1‐yl)‐N‐(4‐chlorophenyl)piperidine‐1‐carboxamide] | 2000 | 3.8 | 
10 | O=C(Nc1ccc(Br)cc1)N1CCC(n2c(=O)[nH]c3cc(Cl)ccc32)CC1 [Compound 17, 4‐(5‐chloro‐2‐oxo‐2,3‐dihydro‐1H‐1,3‐benzodiazol‐1‐yl)‐N‐(4‐bromophenyl)piperidine‐1‐carboxamide] |  | 4.1 | IC50 [1, 5]: 1600 nM
11 | O=C(Nc1ccc(I)cc1)N1CCC(n2c(=O)[nH]c3cc(Cl)ccc32)CC1 [Compound 18, 4‐(5‐chloro‐2‐oxo‐2,3‐dihydro‐1H‐1,3‐benzodiazol‐1‐yl)‐N‐(4‐iodophenyl)piperidine‐1‐carboxamide] |  | 1.6 | 
12 | O=C(Nc1ccc(Cl)c(Cl)c1)N1CCC(n2c(=O)[nH]c3cc(Cl)ccc32)CC1 [Compound 19, 4‐(5‐chloro‐2‐oxo‐2,3‐dihydro‐1H‐1,3‐benzodiazol‐1‐yl)‐N‐(3,4‐dichlorophenyl)piperidine‐1‐carboxamide] |  | 3.1 | 
13 | Cc1cccc2c1[nH]c(=O)n2C1CCN(C(=O)Nc2ccc(I)cc2)CC1 [Compound 20, 4‐(4‐methyl‐2‐oxo‐2,3‐dihydro‐1H‐1,3‐benzodiazol‐1‐yl)‐N‐(4‐iodophenyl)piperidine‐1‐carboxamide] | 630 | 3.8 | 
14 | Cc1ccc2c(c1)[nH]c(=O)n2C1CCN(C(=O)Nc2ccc(I)cc2)CC1 [Compound 21, 4‐(5‐methyl‐2‐oxo‐2,3‐dihydro‐1H‐1,3‐benzodiazol‐1‐yl)‐N‐(4‐iodophenyl)piperidine‐1‐carboxamide] | 1700 | 3.8 | 
15 | Cc1ccc2[nH]c(=O)n(C3CCN(C(=O)Nc4ccc(I)cc4)CC3)c2c1 [Compound 22, 4‐(6‐methyl‐2‐oxo‐2,3‐dihydro‐1H‐1,3‐benzodiazol‐1‐yl)‐N‐(4‐iodophenyl)piperidine‐1‐carboxamide] |  |  | IC50 (CI95), biochemical inhibition [1, 4]: inactivity; also recorded: no effect
16 | Cc1cccc2[nH]c(=O)n(C3CCN(C(=O)Nc4ccc(I)cc4)CC3)c12 [Compound 23, 4‐(7‐methyl‐2‐oxo‐2,3‐dihydro‐1H‐1,3‐benzodiazol‐1‐yl)‐N‐(4‐iodophenyl)piperidine‐1‐carboxamide] |  | 2.2 | IC50 [1, 5]: 8700 nM
17 | CN(C(=O)N1CCC(n2c(=O)[nH]c3c(Br)cccc32)CC1)c1ccc(Cl)c(Cl)c1 [Compound 29, 4‐(4‐bromo‐2‐oxo‐2,3‐dihydro‐1H‐1,3‐benzodiazol‐1‐yl)‐N‐(3,4‐dichlorophenyl)‐N‐methylpiperidine‐1‐carboxamide] |  |  | Activity against OGG1 (in words) [1]: no or a very low activity
18 | O=C(Cc1ccc(I)cc1)N1CCC(n2c(=O)[nH]c3c(Br)cccc32)CC1 [Compound 30, 4‐bromo‐1‐{1‐[2‐(4‐iodophenyl)acetyl]piperidin‐4‐yl}‐2,3‐dihydro‐1H‐1,3‐benzodiazol‐2‐one] |  |  | Activity against OGG1 (in words) [1]: no or a very low activity
19 | O=C(Oc1ccc(Cl)cc1)N1CCC(n2c(=O)[nH]c3c(Br)cccc32)CC1 [Compound 31, 4‐chlorophenyl 4‐(4‐bromo‐2‐oxo‐2,3‐dihydro‐1H‐1,3‐benzodiazol‐1‐yl)piperidine‐1‐carboxylate] |  |  | Activity against OGG1 (in words) [1]: no or a very low activity
20 | O=C(NC1CCCCC1)N1CCC(n2c(=O)[nH]c3c(Br)cccc32)CC1 [Compound 32, 4‐(4‐bromo‐2‐oxo‐2,3‐dihydro‐1H‐1,3‐benzodiazol‐1‐yl)‐N‐cyclohexylpiperidine‐1‐carboxamide] |  |  | Activity against OGG1 (in words) [1]: only weakly active
21 | O=C(c1ccc(I)cc1)N1CCC(n2c(=O)[nH]c3c(Br)cccc32)CC1 [Compound 33, 4‐bromo‐1‐[1‐(4‐iodobenzoyl)piperidin‐4‐yl]‐2,3‐dihydro‐1H‐1,3‐benzodiazol‐2‐one] |  |  | Activity against OGG1 (in words) [1]: no or a very low activity
22 | O=c1[nH]c2c(Br)cccc2n1C1CCN(S(=O)(=O)c2ccc(I)cc2)CC1 [Compound 34, 4‐bromo‐1‐[1‐(4‐iodobenzenesulfonyl)piperidin‐4‐yl]‐2,3‐dihydro‐1H‐1,3‐benzodiazol‐2‐one] |  |  | Activity against OGG1 (in words) [1]: no or a very low activity
23 | COc1ncc(NC(=O)N2CCC(n3c(=O)[nH]c4c(Br)cccc43)CC2)cc1C [Compound 35, 4‐(4‐bromo‐2‐oxo‐2,3‐dihydro‐1H‐1,3‐benzodiazol‐1‐yl)‐N‐(6‐methoxy‐5‐methylpyridin‐3‐yl)piperidine‐1‐carboxamide] |  |  | Activity against OGG1 (in words) [1]: only weakly active
24 | O=C(Nc1ccc(I)cc1)N1CCC(n2cnc3c(Br)cccc32)CC1 [Compound 41, 4‐(4‐bromo‐1H‐1,3‐benzodiazol‐1‐yl)‐N‐(4‐iodophenyl)piperidine‐1‐carboxamide] |  |  | Activity against OGG1 (in words) [1]: neither of which had a pronounced effect on inhibiting or stabilizing OGG1
25 | O=C(Nc1ccc(I)cc1)N1CCC(n2c(=O)oc3c(Br)cccc32)CC1 [Compound 42, 4‐(7‐bromo‐2‐oxo‐2,3‐dihydro‐1,3‐benzoxazol‐3‐yl)‐N‐(4‐iodophenyl)piperidine‐1‐carboxamide] |  |  | Activity against OGG1 (in words) [1]: neither of which had a pronounced effect on inhibiting or stabilizing OGG1
26 | O=C(Nc1ccc([N+](=O)[O-])cc1)N1CCC(n2c(=O)[nH]c3c(Br)cccc32)CC1 [Compound 48, 4‐(4‐bromo‐2‐oxo‐2,3‐dihydro‐1H‐1,3‐benzodiazol‐1‐yl)‐N‐(4‐nitrophenyl)piperidine‐1‐carboxamide] |  |  | IC50 (CI95), biochemical inhibition [1, 4]: no effect
27 | CCOC(=O)c1ccc(NC(=O)N2CCC(n3c(=O)[nH]c4c(Br)cccc43)CC2)cc1 [Compound 50, Ethyl‐4‐{[4‐(4‐bromo‐2‐oxo‐2,3‐dihydro‐1H‐1,3‐benzodiazol‐1‐yl)‐piperidine‐1‐carbonyl]‐amino}‐benzoate] |  |  | IC50 (CI95), biochemical inhibition [1, 4]: no effect
28 | CC(=O)Nc1ccc(NC(=O)N2CCC(n3c(=O)[nH]c4c(Br)cccc43)CC2)cc1 [Compound 51, 4‐(4‐bromo‐2‐oxo‐2,3‐dihydro‐1H‐1,3‐benzodiazol‐1‐yl)‐N‐(4‐acetamidophenyl)piperidine‐1‐carboxamide] |  |  | IC50 (CI95), biochemical inhibition [1, 4]: no effect

Second part, led by results:

Row | IC50 [1, 3] [nM] | DSF stabilization (ΔT) [2] [K] | SMILES | also measured
29 | 2200 | 3.9 | O=C(Nc1ccc(I)cc1)N1CCC(n2c(=O)[nH]c3c(F)cccc32)CC1 [Compound 24, 4‐(4‐fluoro‐2‐oxo‐2,3‐dihydro‐1H‐1,3‐benzodiazol‐1‐yl)‐N‐(4‐iodophenyl)piperidine‐1‐carboxamide] | 
30 | 910 | 4.2 | COc1cccc2c1[nH]c(=O)n2C1CCN(C(=O)Nc2ccc(I)cc2)CC1 [Compound 27, 4‐(4‐methoxy‐2‐oxo‐2,3‐dihydro‐1H‐1,3‐benzodiazol‐1‐yl)‐N‐(4‐iodophenyl)piperidine‐1‐carboxamide] | 
31 | 350 | 4.2 | O=C(Nc1ccc(Cl)cc1)N1CCC(n2c(=O)[nH]c3c(Br)cccc32)CC1 [Compound 43, 4‐(4‐bromo‐2‐oxo‐2,3‐dihydro‐1H‐1,3‐benzodiazol‐1‐yl)‐N‐(4‐chlorophenyl)piperidine‐1‐carboxamide] | 
32 | 32200 |  | CN(C)c1ccc(NC(=O)N2CCC(n3c(=O)[nH]c4c(Br)cccc43)CC2)cc1 [Compound 52, 4‐(4‐bromo‐2‐oxo‐2,3‐dihydro‐1H‐1,3‐benzodiazol‐1‐yl)‐N‐[4‐(dimethylamino)phenyl]piperidine‐1‐carboxamide] | 
33 | 2000 |  | COc1cc(NC(=O)N2CCC(n3c(=O)[nH]c4c(OC)cccc43)CC2)ccc1C [TH9525, 4‐(4‐methoxy‐2‐oxo‐2,3‐dihydro‐1H‐1,3‐benzodiazol‐1‐yl)‐N‐(3‐methoxy‐4‐methylphenyl)piperidine‐1‐carboxamide] | 
